The values that follow come from BindingDB's records for doi:10.7270/Q2JS9NV0 (Nmmlsc, 2009).

For the experiment, the target named is Ras-related C3 botulinum toxin substrate 1 (Mus musculus, UniProt P63001). The experiment can be described thus: analog inhibition of wildtype Rac1 nucleotide binding – biochemical, oxadiazole analogs, multiplex bead flow cytometry, SAR follow-up (AID 2027).

With `COc1ccc(-c2noc(CCC(=O)N3CCN(c4ccccc4F)CC3)n2)cc1` [1-[4-(2-fluorophenyl)piperazin-1-yl]-3-[3-(4-methoxyphenyl)-1,2,4-oxadiazol-5-yl]propan-1-one], the inhibition constant (Ki) turned out to be 100 nM.
